Assay results published in PubChem BioAssay AID2060896 (Molecular Pharmacology Branch, DTP, NCI, 2025).

Test system: 941728-121-R-J1-PDC complex spheroid viability
Assay: Anticancer human tumor 941728-121-R-J1-PDC patient-derived lung adenocarcinoma cell line growth inhibition [RAS]
Details: for IC50: curve of first compound; for viability, T/C: stronger effect = lower value; active = viability on the fitted dose curve at most 10% of control; inactive = the rest
In short: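 Tumour cells grown as complex spheroids with HUVEC endothelial cells and mesenchymal stem cells, treated with RAS pathway inhibitor combinations. Each agent spans half-log steps from near clinical Cmax, or 10 microM where Cmax is unknown.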

[1] = second compound 0.0316 µM, first compound 0.000949 µM
[2] = second compound 0.0316 µM, first compound 0.003 µM
[3] = second compound 0.0316 µM, first compound 0.00949 µM
[4] = second compound 0.0316 µM, first compound 0.03 µM
[5] = second compound 0.0316 µM, first compound 0.0949 µM
[6] = second compound 0.0316 µM, first compound 0.3 µM
[7] = second compound 0.1 µM, first compound 0.000949 µM
[8] = second compound 0.1 µM, first compound 0.003 µM
[9] = second compound 0.1 µM, first compound 0.00949 µM
[10] = second compound 0.1 µM, first compound 0.03 µM
[11] = second compound 0.1 µM, first compound 0.0949 µM
[12] = second compound 0.1 µM, first compound 0.3 µM
[13] = second compound 0.316 µM, first compound 0.000949 µM
[14] = second compound 0.316 µM, first compound 0.003 µM
[15] = second compound 0.316 µM, first compound 0.00949 µM
[16] = second compound 0.316 µM, first compound 0.03 µM
[17] = second compound 0.316 µM, first compound 0.0949 µM
[18] = second compound 0.316 µM, first compound 0.3 µM
[19] = second compound 1 µM, first compound 0.000949 µM
[20] = second compound 1 µM, first compound 0.003 µM
[21] = second compound 1 µM, first compound 0.00949 µM
[22] = second compound 1 µM, first compound 0.03 µM
[23] = second compound 1 µM, first compound 0.0949 µM
[24] = second compound 1 µM, first compound 0.3 µM
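Note: spheroids exposed to compounds for 7 days before readout.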
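Throughout, for viability, T/C: 100% = DMSO vehicle control viability.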

NC1c2ccccc2OC12CCN(c1cnc3c(N4CCCc5ncccc54)n[nH]c3n1)CC2 (stereo unspecified) + C=CC(=O)N1CCN(c2nc(OCC3CCCN3C)nc3c(F)c(-c4nc(N)cc(C)c4C(F)(F)F)c(Cl)cc23)C(C)C1
< 31.6 nM: IC50 (second compound 0.00316 µM) | IC50 (second compound 0.01 µM) | IC50 (second compound 0.0316 µM) | IC50 (second compound 0.1 µM) | IC50 (second compound 0.316 µM) | IC50 (second compound 1 µM)
inactive: viability, T/C (second compound 0.00316 µM, first compound 0.0316 µM) 15.4% | viability, T/C (second compound 0.00316 µM, first compound 0.1 µM) 15.1% | viability, T/C (second compound 0.00316 µM, first compound 0.316 µM) 15.6% | viability, T/C (second compound 0.00316 µM, first compound 1 µM) 17% | viability, T/C (second compound 0.00316 µM, first compound 3.16 µM) 16.8% | viability, T/C (second compound 0.00316 µM, first compound 10 µM) 17.1% | viability, T/C (second compound 0.01 µM, first compound 0.0316 µM) 18.8% | viability, T/C (second compound 0.01 µM, first compound 0.1 µM) 15.7% | viability, T/C (second compound 0.01 µM, first compound 0.316 µM) 16.2% | viability, T/C (second compound 0.01 µM, first compound 1 µM) 15.5% | viability, T/C (second compound 0.01 µM, first compound 3.16 µM) 17.1% | viability, T/C (second compound 0.01 µM, first compound 10 µM) 17.5% | viability, T/C (second compound 0.0316 µM, first compound 0.0316 µM) 16.4% | viability, T/C (second compound 0.0316 µM, first compound 0.1 µM) 15.7% | viability, T/C (second compound 0.0316 µM, first compound 0.316 µM) 15.8% | viability, T/C (second compound 0.0316 µM, first compound 1 µM) 16.8% | viability, T/C (second compound 0.0316 µM, first compound 3.16 µM) 15.9% | viability, T/C (second compound 0.0316 µM, first compound 10 µM) 16.3% | viability, T/C (second compound 0.1 µM, first compound 0.0316 µM) 15% | viability, T/C (second compound 0.1 µM, first compound 0.1 µM) 15.3% | viability, T/C (second compound 0.1 µM, first compound 0.316 µM) 16% | viability, T/C (second compound 0.1 µM, first compound 1 µM) 17.6% | viability, T/C (second compound 0.1 µM, first compound 3.16 µM) 17% | viability, T/C (second compound 0.1 µM, first compound 10 µM) 17% | viability, T/C (second compound 0.316 µM, first compound 0.0316 µM) 16.3% | viability, T/C (second compound 0.316 µM, first compound 0.1 µM) 16.8% | viability, T/C (second compound 0.316 µM, first compound 0.316 µM) 17% | viability, T/C (second compound 0.316 µM, first compound 1 µM) 16.9% | viability, T/C (second compound 0.316 µM, first compound 3.16 µM) 15.7% | viability, T/C (second compound 0.316 µM, first compound 10 µM) 16% | viability, T/C (second compound 1 µM, first compound 0.0316 µM) 16.1% | viability, T/C (second compound 1 µM, first compound 0.1 µM) 15.1% | viability, T/C (second compound 1 µM, first compound 0.316 µM) 16% | viability, T/C (second compound 1 µM, first compound 1 µM) 16.6% | viability, T/C (second compound 1 µM, first compound 3.16 µM) 17.6% | viability, T/C (second compound 1 µM, first compound 10 µM) 17.2%

CC1(C)CCC(Nc2ncc(C(F)(F)F)c(-c3c[nH]c4c(P(C)(C)=O)c(C#N)ccc34)n2)CN1 (stereo unspecified) + C#Cc1c(F)ccc2cc(O)cc(-c3ncc4c(N5CC6CCC(C5)N6)nc(OCC56CCCN5CC(F)C6)nc4c3F)c12
> 300 nM: IC50 (second compound 0.0316 µM) | IC50 (second compound 0.1 µM)
< 0.949 nM: IC50 (second compound 0.316 µM) | IC50 (second compound 1 µM) | IC50 (second compound 3.16 µM) | IC50 (second compound 10 µM)
inactive: viability, T/C [1] 71.4% | viability, T/C [2] 58.2% | viability, T/C [3] 53.7% | viability, T/C [4] 48% | viability, T/C [5] 49.9% | viability, T/C [6] 54.6% | viability, T/C [7] 68.5% | viability, T/C [8] 53.6% | viability, T/C [9] 55.5% | viability, T/C [10] 52.7% | viability, T/C [11] 50.5% | viability, T/C [12] 49.4% | viability, T/C [13] 51.5% | viability, T/C [14] 46.7% | viability, T/C [15] 38.5% | viability, T/C [16] 45.4% | viability, T/C [17] 44.4% | viability, T/C [18] 49.6% | viability, T/C [19] 33.8% | viability, T/C [20] 40.2% | viability, T/C [21] 35.6% | viability, T/C [22] 36.3% | viability, T/C [23] 38.6% | viability, T/C [24] 38.9% | viability, T/C (second compound 3.16 µM, first compound 0.000949 µM) 30.9% | viability, T/C (second compound 3.16 µM, first compound 0.003 µM) 30.8% | viability, T/C (second compound 3.16 µM, first compound 0.00949 µM) 33.6% | viability, T/C (second compound 3.16 µM, first compound 0.03 µM) 35.1% | viability, T/C (second compound 3.16 µM, first compound 0.0949 µM) 34.4% | viability, T/C (second compound 3.16 µM, first compound 0.3 µM) 34.5% | viability, T/C (second compound 10 µM, first compound 0.000949 µM) 23% | viability, T/C (second compound 10 µM, first compound 0.003 µM) 30.1% | viability, T/C (second compound 10 µM, first compound 0.00949 µM) 24.3% | viability, T/C (second compound 10 µM, first compound 0.03 µM) 24.9% | viability, T/C (second compound 10 µM, first compound 0.0949 µM) 27.5% | viability, T/C (second compound 10 µM, first compound 0.3 µM) 26%

CCc1c2c(nc3ccc(O)cc13)-c1cc3c(c(=O)n1C2)COC(=O)[C@]3(O)CC + C=CC(=O)N1CCN(c2nc(OCC3CCCN3C)nc3c(F)c(-c4nc(N)cc(C)c4C(F)(F)F)c(Cl)cc23)C(C)C1
< 0.949 nM: IC50 (second compound 0.00316 µM) | IC50 (second compound 0.01 µM) | IC50 (second compound 0.0316 µM) | IC50 (second compound 0.1 µM) | IC50 (second compound 0.316 µM) | IC50 (second compound 1 µM)
inactive: viability, T/C (second compound 0.00316 µM, first compound 0.000949 µM) 21.6% | viability, T/C (second compound 0.00316 µM, first compound 0.003 µM) 18.7% | viability, T/C (second compound 0.00316 µM, first compound 0.00949 µM) 14.7% | viability, T/C (second compound 0.00316 µM, first compound 0.03 µM) 13.7% | viability, T/C (second compound 0.00316 µM, first compound 0.0949 µM) 12.1% | viability, T/C (second compound 0.01 µM, first compound 0.000949 µM) 18.9% | viability, T/C (second compound 0.01 µM, first compound 0.003 µM) 15.6% | viability, T/C (second compound 0.01 µM, first compound 0.00949 µM) 20.6% | viability, T/C (second compound 0.01 µM, first compound 0.03 µM) 13.1% | viability, T/C (second compound 0.01 µM, first compound 0.0949 µM) 11.4% | viability, T/C [1] 18.3% | viability, T/C [2] 16.5% | viability, T/C [3] 13.8% | viability, T/C [4] 15.1% | viability, T/C [5] 11.7% | viability, T/C [7] 16.3% | viability, T/C [8] 17% | viability, T/C [9] 15.1% | viability, T/C [10] 12.6% | viability, T/C [11] 12.4% | viability, T/C [13] 18.3% | viability, T/C [14] 15.8% | viability, T/C [15] 13.7% | viability, T/C [16] 12.2% | viability, T/C [17] 11.7% | viability, T/C [19] 17.1% | viability, T/C [20] 15.4% | viability, T/C [21] 13.8% | viability, T/C [22] 13.7% | viability, T/C [23] 14.8% | viability, T/C [24] 7.83%
active: viability, T/C (second compound 0.00316 µM, first compound 0.3 µM) 8.13% | viability, T/C (second compound 0.01 µM, first compound 0.3 µM) 7.95% | viability, T/C [6] 7.67% | viability, T/C [12] 8.11% | viability, T/C [18] 6.82%
